According to patent publication US20090068290A1, “BIFEPRUNOX DOSES FOR TREATING SCHIZOPHRENIA” (priority 2006, published 2009):

Tested on: adult subjects with schizophrenia
Assay: Adverse events (TEAE, SAE, discontinuation, EPS-related TEAE, anticholinergic use), Clinical Study One
Format: in vivo, human
Method: METHODOLOGY: This was a randomized, double-blind, fixed-dose, placebo-controlled, risperidone-referenced, parallel group, multi-center study in adult subjects with schizophrenia. There were five treatment groups in this study. […] Study medication was administered once daily. After Baseline measurements were performed, the titration phase was begun. Bifeprunox treated subjects were titrated up to 5 mg, 10 mg or 20 mg according to a standardized titration schedule (Day 1: 0.125 mg, Day 2: 0.25 mg, Day 3: 0.5 mg, Day 4: 1.0 mg, Day 5: 2.0 mg, Day 6: 5.0 mg, Day 7: 10.0 mg, Day 8: 20 mg).

For `O=c1[nH]c2cccc(N3CCN(Cc4cccc(-c5ccccc5)c4)CC3)c2o1` [Bifeprunox, 7-[4-([1,1′-biphenyl]-3-ylmethyl)-1-piperazinyl]-2(3H)-benzoxazolone], the “TEAE Akathisia, %” value (5 mg, Safety Population) was “(<1%)”, the “TEAE Benign Skin Neoplasm Nos, %” value (5 mg, Safety Population) was “(<1%)” and the “TEAE Muscle Stiffness, %” value (5 mg, Safety Population) was “(<1%)”. For the same molecule, the “TEAE Muscle Tightness, %” value (5 mg, Safety Population) was “(<1%)”, the “TEAE Muscle Twitching, %” value (5 mg, Safety Population) was “(2%)” and the “TEAE NEOPLASMS BENIGN, MALIGNANT AND UNSPECIFIED (INCL CYSTS AND POLYPS), %” value (5 mg, Safety Population) was “(2%)”. For the same molecule, the “TEAE NERVOUS SYSTEM DISORDERS, %” value (5 mg, Safety Population) was “(48%)”, the “TEAE Neck Pain, %” value (5 mg, Safety Population) was “(<1%)” and the “TEAE Pain in Jaw, %” value (5 mg, Safety Population) was “(<1%)”. For the same molecule, the “TEAE Pain in Limb, %” value (5 mg, Safety Population) was “(<1%)”, the “TEAE Skin Papilloma, %” value (5 mg, Safety Population) was “(<1%)” and the “TEAE Akathisia, %” value (10 mg, Safety Population) was “(2%)”. The “TEAE Muscle Stiffness, %” value (10 mg, Safety Population) was “(<1%)”, the “TEAE Muscle Twitching, %” value (10 mg, Safety Population) was “(<1%)” and the “TEAE Musculoskeletal Discomfort, %” value (10 mg, Safety Population) was “(<1%)”. For the same molecule, the “TEAE Myalgia, %” value (10 mg, Safety Population) was “(<1%)”, the “TEAE NERVOUS SYSTEM DISORDERS, %” value (10 mg, Safety Population) was “(50%)” and the “TEAE Neck Pain, %” value (10 mg, Safety Population) was “(3%)”. The “TEAE Pain in Jaw, %” value (10 mg, Safety Population) was “(<1%)”, the “TEAE Pain in Limb, %” value (10 mg, Safety Population) was “(2%)” and the “TEAE Akathisia, %” value (20 mg, Safety Population) was “(3%)”. The “TEAE Muscle Spasms, %” value (20 mg, Safety Population) was “(2%)”, the “TEAE Muscle Twitching, %” value (20 mg, Safety Population) was “(<1%)” and the “TEAE Myalgia, %” value (20 mg, Safety Population) was “(<1%)”. For the same molecule, the “TEAE NERVOUS SYSTEM DISORDERS, %” value (20 mg, Safety Population) was “(43%)”, the “TEAE Neck Pain, %” value (20 mg, Safety Population) was “(2%)” and the “TEAE Pain in Limb, %” value (20 mg, Safety Population) was “(3%)”. The “TEAE Sensation of Heaviness, %” value (20 mg, Safety Population) was “(<1%)”, the “Acute Psychosis, %” value (BX 5 mg) was “(<1%)” and the “Aggression, %” value (BX 5 mg) was “(<1%)”. The “Agitation Aggravated, %” value (BX 5 mg) was “(4%)”, the “Agitation, %” value (BX 5 mg) was “(11%)” and the “Anxiety Aggravated, %” value (BX 5 mg) was “(3%)”. The “Anxiety, %” value (BX 5 mg) was “(5%)”, the “Confusion, %” value (BX 5 mg) was “(<1%)” and the “DIZZINESS, %” value (BX 5 mg) was “(14%)”. For the same molecule, the “DYSKINESIA, %” value (BX 5 mg) was “(<1%)”, the “EXTRAPYRAMIDAL DISORDER, %” value (BX 5 mg) was “(1%)” and the “Gait Abnormal Nos, %” value (BX 5 mg) was “(<1%)”. For the same molecule, the “Headache Nos, %” value (BX 5 mg) was “(30%)”, the “PSYCHIATRIC DISORDERS, %” value (BX 5 mg) was “(41%)” and the “Parkinsonian Rest Tremor, %” value (BX 5 mg) was “(<1%)”. The “SEDATION, %” value (BX 5 mg) was “(5%)”, the “SOMNOLENCE, %” value (BX 5 mg) was “(3%)” and the “Syncope, %” value (BX 5 mg) was “(<1%)”. For the same molecule, the “TREMOR, %” value (BX 5 mg) was “(3%)”, the “Trismus, %” value (BX 5 mg) was “(<1%)” and the “Agitation Aggravated, %” value (BX 10 mg) was “(4%)”. The “Agitation, %” value (BX 10 mg) was “(9%)”, the “Anxiety Aggravated, %” value (BX 10 mg) was “(3%)” and the “Anxiety, %” value (BX 10 mg) was “(10%)”. For the same molecule, the “DIZZINESS, %” value (BX 10 mg) was “(10%)”, the “DYSKINESIA, %” value (BX 10 mg) was “(<1%)” and the “Gait Abnormal Nos, %” value (BX 10 mg) was “(2%)”. For the same molecule, the “Headache Nos, %” value (BX 10 mg) was “(35%)”, the “Hyperactivity Syndrome Aggravated, %” value (BX 10 mg) was “(<1%)” and the “Loss of Propriception, %” value (BX 10 mg) was “(<1%)”. For the same molecule, the “Migraine Nos, %” value (BX 10 mg) was “(<1%)”, the “PSYCHIATRIC DISORDERS, %” value (BX 10 mg) was “(32%)” and the “SEDATION, %” value (BX 10 mg) was “(8%)”. The “SOMNOLENCE, %” value (BX 10 mg) was “(2%)”, the “Syncope, %” value (BX 10 mg) was “(3%)” and the “TARDIVE DYSKINESIA, %” value (BX 10 mg) was “(<1%)”. The “Adjustment Disorder Nos, %” value (BX 20 mg) was “(<1%)”, the “Affect Lability, %” value (BX 20 mg) was “(<1%)” and the “Aggression, %” value (BX 20 mg) was “(<1%)”. For the same molecule, the “Agitation Aggravated, %” value (BX 20 mg) was “(<1%)”, the “Agitation, %” value (BX 20 mg) was “(11%)” and the “Anxiety Aggravated, %” value (BX 20 mg) was “(2%)”. The “Anxiety, %” value (BX 20 mg) was “(6%)”, the “Bruxism, %” value (BX 20 mg) was “(<1%)” and the “Confusion, %” value (BX 20 mg) was “(<1%)”. The “DIZZINESS, %” value (BX 20 mg) was “(7%)”, the “DYSARTHRIA, %” value (BX 20 mg) was “(<1%)” and the “Disturbance in Attention, %” value (BX 20 mg) was “(<1%)”. For the same molecule, the “Dystonia, %” value (BX 20 mg) was “(<1%)”, the “EXTRAPYRAMIDAL DISORDER, %” value (BX 20 mg) was “(2%)” and the “Headache Nos, %” value (BX 20 mg) was “(25%)”. For the same molecule, the “Hypoaesthesia, %” value (BX 20 mg) was “(<1%)”, the “Memory Impairment, %” value (BX 20 mg) was “(3%)” and the “Oculogyric Crisis, %” value (BX 20 mg) was “(<1%)”. The “PSYCHIATRIC DISORDERS, %” value (BX 20 mg) was “(40%)”, the “Parkinsonism, %” value (BX 20 mg) was “(<1%)” and the “SEDATION, %” value (BX 20 mg) was “(9%)”. The “SOMNOLENCE, %” value (BX 20 mg) was “(5%)”.
